Reference: PubChem BioAssay (NCI)
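Tested at 5 concentrations; 48 h exposure; 96-well plates; endpoints linearly interpolated, else capped at highest concentration. GI50 marks 50% less growth. At the TGI there is no net growth.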

How the values were obtained:
Assay in all cases: NCI-60 cell line screen, 48 h
SK-MEL-2 melanoma = test system: SK-MEL-2 melanoma
ACHN renal = test system: ACHN renal
LOX IMVI melanoma = test system: LOX IMVI melanoma
MDA-MB-231 breast = test system: MDA-MB-231 breast
HL-60(TB) leukemia = test system: HL-60(TB) leukemia
OVCAR-3 ovarian = test system: OVCAR-3 ovarian
T-47D breast = test system: T-47D breast
SK-MEL-28 melanoma = test system: SK-MEL-28 melanoma
MCF7 breast = test system: MCF7 breast
UO-31 renal = test system: UO-31 renal
HS 578T breast = test system: HS 578T breast
SW-620 colon = test system: SW-620 colon
OVCAR-5 ovarian = test system: OVCAR-5 ovarian
A498 renal = test system: A498 renal
NCI-H522 lung = test system: NCI-H522 lung
HOP-92 NSCLC = test system: HOP-92 NSCLC
A549 NSCLC = test system: A549 NSCLC
COLO 205 colon = test system: COLO 205 colon
SNB-75 CNS = test system: SNB-75 CNS
U251 CNS = test system: U251 CNS
SF-539 CNS = test system: SF-539 CNS
RXF 393 renal = test system: RXF 393 renal
M14 melanoma = test system: M14 melanoma
MDA-MB-435 = test system: MDA-MB-435
SN12C renal = test system: SN12C renal
786-0 renal = test system: 786-0 renal
DU-145 prostate = test system: DU-145 prostate
KM12 colon = test system: KM12 colon
SF-295 CNS = test system: SF-295 CNS
SR leukemia = test system: SR leukemia
TK-10 renal = test system: TK-10 renal
CAKI-1 renal = test system: CAKI-1 renal
CCRF-CEM leukemia = test system: CCRF-CEM leukemia
RPMI-8226 leukemia = test system: RPMI-8226 leukemia
HT29 colon = test system: HT29 colon
SNB-19 CNS = test system: SNB-19 CNS
HCT-116 colon = test system: HCT-116 colon
MOLT-4 leukemia = test system: MOLT-4 leukemia
UACC-62 melanoma = test system: UACC-62 melanoma
OVCAR-8 ovarian = test system: OVCAR-8 ovarian
HCC-2998 colon = test system: HCC-2998 colon
NCI-H23 lung = test system: NCI-H23 lung
SF-268 CNS = test system: SF-268 CNS
UACC-257 melanoma = test system: UACC-257 melanoma
MALME-3M melanoma = test system: MALME-3M melanoma
HCT-15 colon = test system: HCT-15 colon
SK-MEL-5 melanoma = test system: SK-MEL-5 melanoma
HOP-62 NSCLC = test system: HOP-62 NSCLC
BT-549 breast = test system: BT-549 breast
IGROV1 ovarian = test system: IGROV1 ovarian
NCI-H460 lung = test system: NCI-H460 lung
PC-3 prostate = test system: PC-3 prostate
NCI-H226 lung = test system: NCI-H226 lung
NCI/ADR-RES ovarian = test system: NCI/ADR-RES ovarian
SK-OV-3 ovarian = test system: SK-OV-3 ovarian

SMILES: Cc1ccc(C)c(NC2=C(Cl)C(=O)c3nc(C)ccc3C2=O)c1
- GI50 (SK-MEL-2 melanoma): 1930 nM
- TGI (SK-MEL-2 melanoma): 3890 nM
- GI50 (ACHN renal): 1450 nM
- TGI (ACHN renal): 2910 nM
- GI50 (LOX IMVI melanoma): 288 nM
- TGI (LOX IMVI melanoma): 1590 nM
- GI50 (MDA-MB-231 breast): 969 nM
- TGI (MDA-MB-231 breast): 2820 nM
- GI50 (HL-60(TB) leukemia): 1160 nM
- TGI (HL-60(TB) leukemia): 3360 nM
- GI50 (OVCAR-3 ovarian): 292 nM
- TGI (OVCAR-3 ovarian): 1150 nM
- GI50 (T-47D breast): 1260 nM
- TGI (T-47D breast): 3720 nM
- GI50 (SK-MEL-28 melanoma): 1990 nM
- TGI (SK-MEL-28 melanoma): 3700 nM
- GI50 (MCF7 breast): 917 nM
- TGI (MCF7 breast): 3010 nM
- GI50 (UO-31 renal): 1250 nM
- TGI (UO-31 renal): 2640 nM
- GI50 (HS 578T breast): 2050 nM
- TGI (HS 578T breast): 5760 nM
- GI50 (SW-620 colon): 1790 nM
- TGI (SW-620 colon): 4270 nM
- GI50 (OVCAR-5 ovarian): 2410 nM
- TGI (OVCAR-5 ovarian): 4510 nM
- GI50 (A498 renal): 2030 nM
- TGI (A498 renal): 8140 nM
- GI50 (NCI-H522 lung): 1920 nM
- TGI (NCI-H522 lung): 4380 nM
- GI50 (HOP-92 NSCLC): 1840 nM
- TGI (HOP-92 NSCLC): 3780 nM
- GI50 (A549 NSCLC): 2100 nM
- TGI (A549 NSCLC): 4750 nM
- GI50 (COLO 205 colon): 2090 nM
- TGI (COLO 205 colon): 4490 nM
- GI50 (SNB-75 CNS): 1220 nM
- TGI (SNB-75 CNS): 2640 nM
- GI50 (U251 CNS): 1290 nM
- TGI (U251 CNS): 2780 nM
- GI50 (SF-539 CNS): 1650 nM
- TGI (SF-539 CNS): 3120 nM
- GI50 (RXF 393 renal): 1220 nM
- TGI (RXF 393 renal): 2500 nM
- GI50 (M14 melanoma): 1460 nM
- TGI (M14 melanoma): 2900 nM
- GI50 (MDA-MB-435): 1410 nM
- TGI (MDA-MB-435): 3270 nM
- GI50 (SN12C renal): 1050 nM
- TGI (SN12C renal): 3150 nM
- GI50 (786-0 renal): 1790 nM
- TGI (786-0 renal): 3740 nM
- GI50 (DU-145 prostate): 1600 nM
- TGI (DU-145 prostate): 3080 nM
- GI50 (KM12 colon): 1540 nM
- TGI (KM12 colon): 3570 nM
- GI50 (SF-295 CNS): 1750 nM
- TGI (SF-295 CNS): 3310 nM
- GI50 (SR leukemia): 695 nM
- TGI (SR leukemia): 3230 nM
- GI50 (TK-10 renal): 2610 nM
- TGI (TK-10 renal): 4240 nM
- GI50 (CAKI-1 renal): 1430 nM
- TGI (CAKI-1 renal): 3030 nM
- GI50 (CCRF-CEM leukemia): 1610 nM
- TGI (CCRF-CEM leukemia): 5800 nM
- GI50 (RPMI-8226 leukemia): 708 nM
- TGI (RPMI-8226 leukemia): 3340 nM
- GI50 (HT29 colon): 3080 nM
- TGI (HT29 colon): 8770 nM
- GI50 (SNB-19 CNS): 1490 nM
- TGI (SNB-19 CNS): 3420 nM
- GI50 (HCT-116 colon): 333 nM
- TGI (HCT-116 colon): 1510 nM
- GI50 (MOLT-4 leukemia): 633 nM
- TGI (MOLT-4 leukemia): 4090 nM
- GI50 (UACC-62 melanoma): 1560 nM
- TGI (UACC-62 melanoma): 3260 nM
- GI50 (OVCAR-8 ovarian): 1790 nM
- TGI (OVCAR-8 ovarian): 6010 nM
- GI50 (HCC-2998 colon): 1750 nM
- TGI (HCC-2998 colon): 3250 nM
- GI50 (NCI-H23 lung): 1260 nM
- TGI (NCI-H23 lung): 3920 nM
- GI50 (SF-268 CNS): 1420 nM
- TGI (SF-268 CNS): 3290 nM
- GI50 (UACC-257 melanoma): 1420 nM
- TGI (UACC-257 melanoma): 2820 nM
- GI50 (MALME-3M melanoma): 2120 nM
- TGI (MALME-3M melanoma): 4170 nM
- GI50 (HCT-15 colon): 848 nM
- TGI (HCT-15 colon): 2560 nM
- GI50 (SK-MEL-5 melanoma): 1500 nM
- TGI (SK-MEL-5 melanoma): 2890 nM
- GI50 (HOP-62 NSCLC): 1450 nM
- TGI (HOP-62 NSCLC): 2990 nM
- GI50 (BT-549 breast): 1320 nM
- TGI (BT-549 breast): 2660 nM
- GI50 (IGROV1 ovarian): 1360 nM
- TGI (IGROV1 ovarian): 3300 nM
- GI50 (NCI-H460 lung): 1880 nM
- TGI (NCI-H460 lung): 3950 nM
- GI50 (PC-3 prostate): 1140 nM
- TGI (PC-3 prostate): 2920 nM
- GI50 (NCI-H226 lung): 1670 nM
- TGI (NCI-H226 lung): 4400 nM
- GI50 (NCI/ADR-RES ovarian): 1330 nM
- TGI (NCI/ADR-RES ovarian): 5020 nM
- GI50 (SK-OV-3 ovarian): 2740 nM
- TGI (SK-OV-3 ovarian): 14600 nM
